This assay has as its target T1, human α2A (Homo sapiens, UniProt P08913).
T1 construct: expressed in transfected cells; host or cells: CHO (CHO-C10)
T1 sequence (P08913 1-465): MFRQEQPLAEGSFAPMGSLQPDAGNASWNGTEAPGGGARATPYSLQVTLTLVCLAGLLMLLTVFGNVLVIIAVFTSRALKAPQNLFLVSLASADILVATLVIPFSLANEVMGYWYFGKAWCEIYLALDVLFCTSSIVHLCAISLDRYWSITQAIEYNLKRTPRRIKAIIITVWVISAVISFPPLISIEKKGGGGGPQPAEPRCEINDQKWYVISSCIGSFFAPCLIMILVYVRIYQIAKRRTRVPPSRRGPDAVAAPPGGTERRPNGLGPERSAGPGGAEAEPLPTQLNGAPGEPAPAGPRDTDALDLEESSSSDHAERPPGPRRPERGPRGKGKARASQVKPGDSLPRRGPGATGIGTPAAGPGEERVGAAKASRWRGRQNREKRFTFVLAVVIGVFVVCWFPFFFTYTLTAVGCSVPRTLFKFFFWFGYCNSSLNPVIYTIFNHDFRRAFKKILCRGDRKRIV
Description: Receptor binding assay, [3H]rauwolscine, CHO-C10 cell membranes. Particulars: 22°C, 30 minutes. The procedure: Cell preparation: […] Cells were harvested by scraping and placed into cold buffer of the following composition: 50 mM Tris-HCl, 5 mM EDTA, pH 7.4). Cells were then homogenized with a Polytron homogenizer for 2 X 10 sec at setting #7, and centrifuged for 20 minutes at 49,000 x g. The pellet fraction was washed (resuspended in Tris-HCl, pH 8 buffer and centrifuged for 15-20 minutes at 49,000 x g) 2 times and stored at -100°C until binding assay. Binding Studies: […] Frozen membrane pellet was resuspended in 25 mM glycine/glycine, pH 7.5 and incubated with radioligand under the following conditions: […] RKC-[^3H]rauwolscine, 0°C, 120 minutes; and, HCC-[^3H]prazosin, 22°C, 30 minutes in a final volume of 500 ul. At the end of the incubation period, the samples were filtered through glass filters (Whatman GF/B) in a 96 well cell harvester and rapidly washed four times with 4 mL of iced-cold 50 mM Tris-HCl buffer. The filters were then oven dried and transferred to scintillation vials containing 10 mL of Beckman's Ready Protein® scintillation cocktail for counting. […] Protein concentrations were determined with a protein assay kit from Bio Rad. Binding isotherms, equilibrium dissociation and affinity constants were analyzed and determined by the non-linear least squares curve fitting programs EBDA (BioSoft) or AccuFit Competition/Saturation by Beckman. Cell preparation: […] Cells were harvested by scraping and placed into cold buffer of the following composition: 50 mM Tris-HCl, 5 mM EDTA, pH 7.4). Cells were then homogenized with a Polytron homogenizer for 2 X 10 sec at setting #7, and centrifuged for 20 minutes at 49,000 x g. The pellet fraction was washed (resuspended in Tris-HCl, pH 8 buffer and centrifuged for 15-20 minutes at 49,000 x g) 2 times and stored at -100°C until binding assay. […] Frozen membrane pellet was resuspended in 25 mM glycine/glycine, pH 7.4 and incubated with radioligand under the following conditions: […] At the end of the incubation period, the samples were filtered through glass fiber filters (Whatman GF/B) in a 96 well cell harvester and rapidly washed four times with 4 mL of iced-cold 50 mM Tris-CHl buffer. The filters were then oven dried and transferred to scintillation vials containing 5 mL of Beckman's Ready Protein® scintillation cocktail for counting. […] Protein concentrations were determined with a protein assay kit from Bio Rad. Binding isotherms, equilibrium dissociation and affinity constants were analyzed and determined by the non-linear least squares curve fitting programs AccuFit Competition/Saturation by Beckman.
In turn, `Clc1cccc(Cl)c1Nc1ncc[nH]1` yielded a Ki of 95 nM.

In turn, `Brc1ccccc1Nc1ncc[nH]1` showed an inhibitory constant (Ki) of 214 nM.

`Clc1ccccc1Nc1ncc[nH]1` came in with an inhibition constant Ki of 287 nM.

With `COc1ccc(Nc2ncc[nH]2)c(C)c1`, the Ki is 10 nM.

The compound `c1ccc(Nc2ncc[nH]2)cc1` displayed a Ki of 394 nM.

`Cc1ccccc1Nc1ncc[nH]1` displayed a Ki of 73 nM. Against the preceding compound, the Ki is about 5.4-fold lower.

Take `Cc1c(Nc2ncc[nH]2)ccc2c1NCCO2`: the affinity corresponds to a Ki of 6.3 nM.

The compound `Cc1c(Nc2ncc[nH]2)ccc2nccnc12` registered an inhibition constant Ki of 31 nM. Compared with the last compound, the Ki is about 4.9-fold higher.

On to `c1cc2c(c(Nc3ncc[nH]3)c1)CCCC2`, for which the Ki turned out to be 39 nM.

Consider `Cc1c(Nc2ncc[nH]2)ccc2c1OCCO2`, for which the inhibition constant (Ki) is 1.7 nM. Against the preceding compound, the Ki is about 23-fold lower.

`Brc1c(Nc2ncc[nH]2)ccc2nccnc12` yielded an inhibition constant (Ki) of 512 nM.

(Values after patent publication EP0741709B1, “AROMATIC 2-AMINO-IMIDAZOLE DERIVATIVES AS ALPHA-2A ADRENOCEPTOR AGONISTS” (Allergan Sales, Inc., priority 1994, dated 1995).)
